Like-named read-outs stand apart in the source and are kept apart here.
Legend:
[1] = plasma protein binding by equilibrium dialysis; assay type: in vitro ADME; design: fraction unbound at 4 h: dose or concentration left out as unconfirmed; settings: 37 °C
Description: In vitro plasma protein binding was determined in preterm rabbit plasma (New Zealand White Pooled Gender, BIOIVT, Hicksville, NY, USA) by equilibrium dialysis using Thermo Fisher Scientific Pierce RED rapid equilibrium dialysis devices (Device Inserts 8K MWCO, Thermo Fisher Scientific, Waltham, MA, USA). The assay was performed using a Tecan Evoware robotic system (Männedorf, Switzerland). Test compounds and the positive control were diluted in the pooled plasma (three donors) to a final concentration of […] and then dispensed into the red chamber of the RED device inserts. Phosphate-Buffered Saline (PBS, from Merck KGaA, Darmstadt, Germany) was dispensed into the other side. Upon completion of 4 h of incubation (37 °C under shaking), equal aliquots were removed from each chamber and matrix matched with even volumes of plasma or buffer for LC-MS/MS analyses.
Free and Bound percentages of the compounds were calculated as follows:(1) %Free=Area buffer sample/Area plasma sample×100 (2) % Bound=100−%Free

db/db diabetic mice = test system: db/db diabetic mice; design: method as in PMID 11600232, PMID 28656106; settings: compared with RGZ and PGZ; cited from earlier work
human PPARγ = biological target: T1, human PPARγ (Homo sapiens, UniProt P37231); test: human PPARγ nuclear reporter assay (luciferase); settings: reporter cells incubated 24 h, luminescence
T1 sequence (P37231 1-505): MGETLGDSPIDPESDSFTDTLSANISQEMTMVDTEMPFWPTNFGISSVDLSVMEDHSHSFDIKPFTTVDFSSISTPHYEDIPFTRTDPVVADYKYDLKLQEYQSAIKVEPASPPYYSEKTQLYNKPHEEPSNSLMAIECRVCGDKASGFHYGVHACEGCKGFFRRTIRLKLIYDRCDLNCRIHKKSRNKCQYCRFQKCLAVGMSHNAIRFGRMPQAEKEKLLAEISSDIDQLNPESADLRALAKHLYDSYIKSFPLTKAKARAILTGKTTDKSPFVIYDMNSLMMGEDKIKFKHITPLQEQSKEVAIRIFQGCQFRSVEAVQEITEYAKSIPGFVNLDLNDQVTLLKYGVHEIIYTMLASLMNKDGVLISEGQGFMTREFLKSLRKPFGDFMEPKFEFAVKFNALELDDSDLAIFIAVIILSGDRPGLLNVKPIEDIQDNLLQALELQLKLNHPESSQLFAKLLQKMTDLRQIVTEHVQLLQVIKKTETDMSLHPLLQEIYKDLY
Description: A human PPARγ nuclear reporter assay was purchased from Indigo Biosciences Inc. (Cat. #IB00101, State College, PA, USA) and was performed according to the manufacturer’s instructions. Briefly, the reporter cells of the assays include a luciferase reporter gene functionally linked to a PPARγ-responsive promoter. Thus, quantifying changes in luciferase expression in the treated reporter cells provides a sensitive surrogate measure of the changes in PPARγ activity. […] A sigmoidal dose–response analysis was performed to determine the half-maximal effective concentration (EC50) values for each TZD (GraphPad Prism 8.4.3, San Diego, CA, USA).

[2] = lung tissue binding by equilibrium dialysis; assay type: in vitro ADME; settings: preterm rabbit lung homogenate, 4 h, 37 °C
Description: In vitro lung tissue binding was also determined by equilibrium dialysis as described above. Preterm rabbit lungs (New Zealand White, BIOIVT) were homogenized using a Precellys tissue homogenizer (Bertin instruments, Montigny-le-Bretonneux, France). Precellys lysing vials (CK28-R, Bertin instruments) were filled with lung and buffer according to the following proportion: 1 g of tissue and 5 mL of ice-cold PBS (dilution 1:6). At the end of the homogenization process, a pool of lung homogenate was prepared mixing equal amount of homogenate from three different donors. Test compounds and the positive control were diluted in the pooled lung homogenate to a final concentration of […] and then dispensed into the red chamber of the RED device inserts. PBS was dispensed into the other side. Upon completion of 4 h of incubation (37 °C under shaking), equal aliquots were removed from each chamber and matrix matched with even volumes of lung homogenate or buffer for LC-MS/MS analyses.
Free and Bound percentages of the compounds were calculated as follows:(3) %Free=Area buffer sample/Area lung homogenate sample×100 (4) % Bound=100−%Free

Caco-2 cell monolayers = test: Caco-2 permeability assay; assay type: in vitro ADME
Description: (§1) Caco-2 cells were purchased from ReadyCell (Barcelona, Spain). The cells arrived already seeded and differentiated (21-days) in 96-well plates (CacoReady 96-well kits, ReadyCell). Cells were maintained in a cell culture medium: Dulbecco’s modified Eagle’s medium (DMEM) 1 g/L glucose containing 10% fetal bovine serum, 1% L-glutamine 200 mM, and 1% penicillin (10,000 U/mL)–streptomycin (10 mg/mL), all from Merck KGaA. The buffer used in the assay was Hanks Balanced Salt Solution (HBSS, Merck). Control compounds were: sulpiride (low permeability control), metoprolol (high permeability control), talinolol (P-glycoprotein transport (Pgp) substrate control), and GF120918 (Elacridar, Pgp inhibitor), all purchased from Merck KGaA.
(§2) The day of the experiment, the integrity of the cell monolayers was assessed before and after the assay by measuring the transepithelial electrical resistance (TEER). The permeability of the compounds across the cell monolayer was determined by measuring their transport in both directions: apical to basolateral (A → B) and basolateral to apical (B → A) in the absence and presence of Elacridar (a known P-gp inhibitor). The donor working solution was prepared by dilution of the DMSO stock of the test compound or positive control with HBSS (pH 7.4) to 10 µM. For A → B directional transport, the donor working solution (with test compound or positive control, with or without P-gp inhibitor) was added to the apical (A) and HBSS was added to the basolateral (B) compartment. For B → A directional transport, the donor working solution (with positive control or test compound […], with or without P-gp inhibitor) was added to the basolateral (B) and HBSS was added to the apical (A) compartment. The assay was performed with a Hamilton Star Lab robotic system. Samples were collected at t0 and 2 h after incubation (5% CO2, 95% relative humidity, 37 °C) for LC-MS/MS analyses.
(§3) Apparent permeability (Papp) was calculated with the following equation: (5) Papp(cm/sec)=(Vr/C0)×(1/A)×(Cr(t)/t) where Vr is the volume of the solution in the receiving compartment (mL); C0 is the initial test compound concentration in the donor compartment (expressed as area ratio); A is the membrane surface area (0.14 cm^2); Cr (t) is the measured concentration of the receiver well at time t120 (expressed as area ratio); and t is time of incubation (sec).

[3] = Caco-2 permeability assay; assay type: in vitro ADME; settings: human, basolateral to apical
[4] = test system: patients with type 2 diabetes; settings: type II diabetes patients, compared with RZG; cited from earlier work
[5] = Caco-2 permeability assay; assay type: in vitro ADME; settings: human, apical to basolateral
Description: as §1, §2, §3

Plasma Protein Binding (%) ([1]; preterm rabbit plasma, 4 h) | EC50 (human PPARγ) [nM] | Lung Tissue Binding (%) [2] [%] | Papp (A–B) (Caco-2 cell monolayers; apical to basolateral, 10 µM, 2 h, without Pgp inhibitor) [×10⁻⁶ cm/s] | Papp with Pgp Inhibitor (A–B) (Caco-2 cell monolayers; apical to basolateral, with Elacridar) [×10⁻⁶ cm/s] | Papp (B–A) (Caco-2 cell monolayers; basolateral to apical, 2 h, without Pgp inhibitor) [×10⁻⁶ cm/s] | Papp with Pgp Inhibitor (B–A) (Caco-2 cell monolayers; basolateral to apical, with Elacridar) [×10⁻⁶ cm/s] | fraction unbound at 4 h ([1]; both sexes, New Zealand White, preterm rabbit plasma (pooled)) | Papp B→A at 2 h, 10 µM ([3]; Caco-2, pH 7.4, with Elacridar (GF120918), concentration not given, with Elacridar, read-out: Papp with Pgp Inhibitor (B–A) (converted)) [×10⁻⁶ cm/s] | Papp B→A at 2 h, 10 µM ([3]; Caco-2, pH 7.4, 2 h, without Pgp inhibitor, read-out: Papp (B–A) (converted)) [×10⁻⁶ cm/s] | Papp A→B at 2 h, 10 µM ([5]; Caco-2, pH 7.4, with Elacridar (GF120918), concentration not given, with Elacridar, read-out: Papp with Pgp Inhibitor (A–B)) [×10⁻⁶ cm/s] | Papp A→B at 2 h, 10 µM ([5]; Caco-2, pH 7.4, 10 µM, 2 h, without Pgp inhibitor, read-out: Papp (A–B)) [×10⁻⁶ cm/s] | Structure (SMILES) | plasma glucose and TG reductions (db/db diabetic mice) | plasma triglycerides [4]
98.4 ± 0.3 | 602 | 91.8 ± 1.8 | 22.9 ± 0.3 | 28.6 ± 1.5 | 18.7 ± 8 | 15.8 ± 3.4 | – | – | – | – | – | Cc1nn(CCOc2ccc(CC3SC(=O)NC3=O)cc2)c(=O)c2ccccc12 (stereo not drawn) [DRF-2546] | superior | –
– | – | 95.6 ± 2.1 | – | – | – | – | 0.033 | 25.4 | 15.3 | 12.3 | 11.8 | CCc1ccc(CCOc2ccc(CC3SC(=O)NC3=O)cc2)nc1 (stereo not drawn) [PGZ, pioglitazone] | – | significant reduction

Reference: publication PMC9320886, “Daily Intraperitoneal Administration of Rosiglitazone Does Not Improve Lung Function or Alveolarization in Preterm Rabbits Exposed to Hyperoxia” (Pharmaceutics, 2022)
